According to patent publication EP0555116B1, “Compositions based on antiseptics and their applications” (HUTCHINSON, priority 1992, dated 1993):

System: antigène du virus de l'hépatite B (AgHBs)
Experiment: In vitro degradation of hepatitis B virus antigen (AgHBs): virucide + patient human serum (1/1000)
Format: biochemical
Settings: Bardac® 0,2 %
From the text: I - Action sur la dégradation in vitro de l'antigène du virus de l'hépatite B (AgHBs) du virus de l'hépatite B : virucide + sérum humain de malade (1/1000ème).

CCCCCCCCCC[N+](C)(C)CCCCCCCCCC [Bardac®, chlorure de didécyldiméthylammonium]
AgHBs résiduel (ratio): 1,35
